Measurements published in ChEMBL document CHEMBL4387727, “Novel triazine-based pyrimidines suppress glomerular mesangial cells proliferation and matrix protein accumulation through a ROS-dependent mechanism in the diabetic milieu” (2019).
Active and inactive are the calls of the source. No cut-off for these calls is given here.

Assays:
Assay type in all cases: functional
[1] = Antioxidant activity in serum deprived rat Glomerular mesangial cells assessed as EOH level by measuring EOH/DHE level in presence of 25 mM glucose at 5 uM after 48 hrs by DHE based HPLC analysis (reference value: 654.98 +/- 32.31 nmol/micromol)
[2] = Nephroprotective activity in serum deprived rat Glomerular mesangial cells assessed as fibronectin protein expression in presence of 25 mM glucose at 1 uM after 48 hrs by Western blot analysis (reference value: 270.11 +/- 19.17%)
[3] = Nephroprotective activity in serum deprived rat Glomerular mesangial cells assessed as fibronectin protein expression in presence of 25 mM glucose at 5 uM after 48 hrs by Western blot analysis (reference value: 270.11 +/- 19.17%)
[4] = Antioxidant activity in serum deprived rat Glomerular mesangial cells assessed as EOH level by measuring EOH/DHE level in presence of 25 mM glucose at 1 uM after 48 hrs by DHE based HPLC analysis (reference value: 654.98 +/- 32.31 nmol/micromol)
[5] = Antioxidant activity in serum deprived rat Glomerular mesangial cells assessed as EOH level by measuring EOH/DHE level in presence of 25 mM glucose at 0.5 uM after 48 hrs by DHE based HPLC analysis (reference value: 654.98 +/- 32.31 nmol/micromol)
[6] = Nephroprotective activity in serum deprived rat Glomerular mesangial cells assessed as fibronectin protein expression in presence of 25 mM glucose at 0.5 uM after 48 hrs by Western blot analysis (reference value: 270.11 +/- 19.17%)
[7] = Nephroprotective activity in serum deprived rat Glomerular mesangial cells assessed as fibronectin protein expression in presence of 25 mM glucose at 2.5 uM after 48 hrs by Western blot analysis (reference value: 270.11 +/- 19.17%)
[8] = Antioxidant activity in serum deprived rat Glomerular mesangial cells assessed as EOH level by measuring EOH/DHE level in presence of 25 mM glucose at 2.5 uM after 48 hrs by DHE based HPLC analysis (reference value: 654.98 +/- 32.31 nmol/micromol)
Rattus norvegicus [9] = species on record: Rattus norvegicus; assay: Antiproliferative activity against serum deprived rat Glomerular mesangial cells assessed as reduction in 25 mM glucose-induced cell proliferation at 0.5 uM after 48 hrs by MTT assay
Rattus norvegicus [10] = species on record: Rattus norvegicus; assay: Antioxidant activity in serum deprived rat Glomerular mesangial cells assessed as reduction in NADPH oxidase dependent super oxide generation in presence of 25 mM glucose at 0.5 uM after 48 hrs by Lucigenin-enhanced chemiluminescence method
Rattus norvegicus [11] = species on record: Rattus norvegicus; assay: Antioxidant activity in serum deprived rat Glomerular mesangial cells assessed as reduction in NADPH oxidase dependent super oxide generation in presence of 25 mM glucose at 1 uM after 48 hrs by Lucigenin-enhanced chemiluminescence method
Rattus norvegicus [12] = species on record: Rattus norvegicus; assay: Antiproliferative activity against serum deprived rat Glomerular mesangial cells assessed as reduction in 25 mM glucose-induced cell proliferation at 1 uM after 48 hrs by MTT assay

SMILES	Activity [1] [nmol/umol]	Activity [2] [%]	Activity [3] [%]	Activity [4] [nmol/umol]	Activity [5] [nmol/umol]	Activity [6] [%]	Activity [7] [%]	Activity [8] [nmol/umol]	Activity (Rattus norvegicus [9])	Activity (Rattus norvegicus [10])	Activity (Rattus norvegicus [11])	Activity (Rattus norvegicus [12])
O=C(CCn1ccc(=O)[nH]c1=O)NNc1nc(Cl)nc(NNC(=O)CCn2ccc(=O)[nH]c2=O)n1	672.32	280.24	179.47	648.96	660.36	267.45	219.47	661.09				
Cc1cn(CCC(=O)NNc2nc(NNC(=O)CCn3ccc(=O)[nH]c3=O)nc(NNC(=O)CCn3cc(C)c(=O)[nH]c3=O)n2)c(=O)[nH]c1=O	240.46	135.87	121.34	257.69	323.17	114.54	127.09	249.97	Active	Active	Active	Active
NNC(=O)CCn1ccc(O)nc1=O	618.26	265.72	227.83	671.47	666.94	268.71	241.91	654.48				
Cc1cn(CCC(=O)NNc2nc(Cl)nc(NNC(=O)CCn3cc(C)c(=O)[nH]c3=O)n2)c(=O)[nH]c1=O	413.96	200.79	170.26	671.14	651.54	231.19	189.91	512.62				
O=C(CCn1ccc(=O)[nH]c1=O)NNc1nc(NNC(=O)CCn2ccc(=O)[nH]c2=O)nc(NNC(=O)CCn2ccc(=O)[nH]c2=O)n1	210.93	167.88	121.19	274.37	359.07	191.33	142.45	198.48	Active	Active	Active	Active
Cc1cn(CCC(=O)NNc2nc(NNC(=O)CCn3cc(C)c(=O)[nH]c3=O)nc(NNC(=O)CCn3cc(C)c(=O)[nH]c3=O)n2)c(=O)[nH]c1=O	224.71	141.91	102.99	305.77	404.34	182.76	108.35	200.36	Active	Active	Active	Active
Cc1cn(CCC(=O)NNc2nc(NNC(=O)CCn3ccc(=O)[nH]c3=O)nc(NNC(=O)CCn3ccc(=O)[nH]c3=O)n2)c(=O)[nH]c1=O	217.62	145.64	151.18	306.28	454.37	178.33	143.41	231.15	Active	Active	Active	Active
Cc1cn(CCC(=O)NN)c(=O)nc1O	710.14	272.26	239.46	658.92	701.09	289.17	251.59	683.28				
